# From publication PMC5618418, “Pharmacokinetics of Jaspine B and Enhancement of Intestinal Absorption of Jaspine B in the Presence of Bile Acid in Rats” (Marine Drugs, 2017)
# Where two headings read alike, the source gives them in different places.
# Columns and labels:
# [1] = Apparent partition coefficient between n-octanol and PBS; assay type: physicochemical; conditions: n-octanol/PBS pH 7.4, 10 mM TC vs absence of TC, 25 °C
# Procedure: The effect of TC on the apparent partition coefficients (APC) of Jaspine B between aqueous and organic phases was investigated. n-Octanol and phosphate-buffered saline (PBS, pH 7.4) were used as the organic and aqueous phases, respectively, in the partition study. n-Octanol and PBS were saturated with respect to one another prior to use. An equal volume of n-octanol was added to PBS (5 mL each) containing Jaspine B (10 mM) and TC (0, 0.1, 1, 10, or 100 mM) in a screw-capped test tube, and the mixture was vortexed vigorously for 5 min followed by shaking for 2 h at 25 °C in a temperature-controlled water bath. After standing for 1 h at 25 °C in the water bath, the mixture was separated into two phases by centrifugation at 3000 rpm for 10 min. The concentration of Jaspine B in a 50-μL aliquot of aqueous and organic phase was measured. Briefly, 50 μL of sample was added to 250 μL of acetonitrile containing 0.5 ng/mL of berberine. After vortexing for 10 min and centrifugation at 13,200 rpm for 5 min, an aliquot (2 μL) of the supernatant was injected directly into the LC-MS/MS system. The APC was calculated from the concentration ratio of each compound between the octanol and PBS phases.
# [2] = Tissue distribution after intravenous administration; assay type: in vivo; conditions: rat
# Procedure: Jaspine B was dissolved in a vehicle containing DMSO: PEG400: saline (2:4:4, v/v/v) and IV-injected via the femoral vein at a dose of 10 mg/kg (vehicle volume, 1 mL/kg). Blood samples were collected from the abdominal artery and animals were euthanized at 0.5 h and 12 h after IV dosing. The blood, brain, liver, kidney, heart, and spleen were immediately excised, gently washed with ice-cold saline, and weighed. The tissue samples were homogenized with 9 volumes of saline. Aliquots of 50 μL of tissue homogenates and plasma were stored at −80 °C until the analysis.
# Aliquots (50 μL) of plasma and tissue homogenates were added to 250 μL of acetonitrile containing 0.5 ng/mL of berberine. After vortexing for 10 min and centrifugation at 13,200 rpm for 5 min, an aliquot (2 μL) of the supernatant was injected directly into the LC-MS/MS system. For the analysis of plasma and tissue concentration, the standard curves with a range of 5–1000 ng/mL in the blank plasma and 10% bank tissue homogenates from brain, liver, kidney, heart, and spleen were prepared, and the concentrations of quality control (QC) samples of respective plasma and tissue homogenates were 25 and 750 ng/mL. The recovery of these spiked QC samples were in the range of 73.6–112.2% in all tissue homogenates. Intra- and inter-day precision and accuracy had coefficients of variance of less than 15%.
# [3] = Stability of QC samples in plasma; parameters: species or system rat
# Procedure: For the analytical validation of Jaspine B in plasma samples, the standard curve range was 25–5000 ng/mL and the concentrations of quality control (QC) samples were 75, 500, and 3000 ng/mL. The recovery of these spiked QC sample were in the range of 88.2–98.1%. Intra- and inter-day precision and accuracy had coefficients of variance of less than 10%. The stability of Jaspine B QC samples after 3 freeze thaw cycles were 83.9–94.4% and the short-term stability of these samples after standing for 6 h at room temperature was 94.3–100.1%.
# MCF-7 = tested on: MCF-7; parameters: method as in doi:10.5352/JLS.2016.26.12.1392; conditions: MCF-7 breast cancer cells; cited from earlier work
# 786-O = tested on: 786-O; parameters: method as in doi:10.5352/JLS.2016.26.12.1392; conditions: 786-O renal carcinoma; cited from earlier work
# MDA-MB-435 = tested on: MDA-MB-435; parameters: method as in doi:10.5352/JLS.2016.26.12.1392; conditions: MDA-MB-435 melanoma; cited from earlier work
# HepG2 = tested on: HepG2; parameters: method as in doi:10.5352/JLS.2016.26.12.1392; conditions: HepG2 hepatoma; cited from earlier work
# [4] = Sprague-Dawley (SD), brain, IV 10 mg/kg, read-out: T/P ratio, brain
# [5] = Sprague-Dawley (SD), kidney, IV 10 mg/kg, read-out: T/P ratio, kidney
# [6] = Sprague-Dawley (SD), liver, IV 10 mg/kg, read-out: T/P ratio, liver
structure (smiles),measurement,setting,value
CCCCCCCCCCCCCC[C@@H]1OC[C@H](N)[C@@H]1O [Jaspine B],increase of partition coefficient,[1],10 fold
same,Kp at 0.5 h,[2]; [4],6.2
same,Kp at 12 h,[2]; [4],1.8
same,Kp at 0.5 h,"[2]; Sprague-Dawley (SD), heart, IV 10 mg/kg, read-out: T/P ratio, heart",14.4
same,Kp at 0.5 h,[2]; [5],11.1
same,Kp at 12 h,[2]; [5],4.7
same,Kp at 0.5 h,[2]; [6],2.3
same,Kp at 12 h,[2]; [6],1.2
same,Kp at 0.5 h,"[2]; Sprague-Dawley (SD), spleen, IV 10 mg/kg, read-out: T/P ratio, spleen",18.5
same,Kp at 12 h,"[2]; Sprague-Dawley, brain, kidney, heart, spleen, 10 mg/kg, single IV administration, read-out: T/P ratios in brain, kidney, heart and spleen",2 to 4
same,Kp at 12 h,"[2]; Sprague-Dawley, heart, IV 10 mg/kg, read-out: T/P ratio, heart",3.2
same,Kp at 12 h,"[2]; Sprague-Dawley, spleen, IV 10 mg/kg, read-out: T/P ratio, spleen",3.9
same,stability after 3 freeze thaw cycles,"[3]; plasma QC samples 75, 500, 3000 ng/mL",83.9–94.4%
same,short-term stability,"[3]; plasma QC samples, 6 h at room temperature",94.3–100.1%
same,IC50,MCF-7,2.31 µM
same,IC50,786-O,29.4 µM
same,IC50,MDA-MB-435,2.6 µM
same,IC50,HepG2,5.69 µM
